In paper PMC5638581 (Molecular Biology of the Cell, 2017):

Key:
[1] = biological target: TorsinA (TorA) with LULL1 luminal domain (LULL1^LD) (Homo sapiens, UniProt O14656); details: 3 μM TorA, 3 μM LULL1 LD, 2 mM ATP, 37 °C, 1 h
[2] = biological target: TorsinA (TorA) with LAP1 luminal domain (LAP1^LD) (Homo sapiens, UniProt O14656); details: 3 μM TorA, 3 μM LAP1 LD, 2 mM ATP, 37 °C, 1 h
[3] = biological target: the molecule itself; assay: SEC + other: negative stain electron microscopy

TorsinA (TorA) with LULL1 luminal domain (LULL1^LD), sequence (Q8NFQ8 236-470 partner, one chain of several): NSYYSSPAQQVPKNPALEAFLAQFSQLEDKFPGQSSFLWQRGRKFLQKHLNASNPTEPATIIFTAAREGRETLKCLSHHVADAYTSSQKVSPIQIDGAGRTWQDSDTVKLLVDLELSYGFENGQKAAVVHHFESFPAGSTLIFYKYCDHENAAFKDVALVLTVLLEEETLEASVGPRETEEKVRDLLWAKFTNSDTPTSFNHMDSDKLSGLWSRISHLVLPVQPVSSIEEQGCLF
TorsinA (TorA) with LAP1 luminal domain (LAP1^LD), sequence (Q5JTV8 356-583 partner, one chain of several): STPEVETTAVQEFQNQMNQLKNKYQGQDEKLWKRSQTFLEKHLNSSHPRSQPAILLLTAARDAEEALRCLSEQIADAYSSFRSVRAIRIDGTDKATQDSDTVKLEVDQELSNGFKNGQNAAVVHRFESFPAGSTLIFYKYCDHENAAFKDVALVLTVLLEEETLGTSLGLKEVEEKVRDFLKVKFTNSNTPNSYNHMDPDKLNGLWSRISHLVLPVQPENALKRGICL

| Molecule | malachite green phosphate release (ATPase) [1] | malachite green phosphate release (ATPase) [2] | stoichiometry N [3] |
| --- | --- | --- | --- |
| Nc1ncnc2c1ncn2[C@@H]1O[C@H](COP(=O)(O)OP(=O)(O)OP(=O)(O)O)[C@@H](O)[C@H]1O [ATP] | ATPase activity was measured in the absence and presence of LAP1^LD and LULL1^LD | ATPase activity was measured in the absence and presence of LAP1^LD and LULL1^LD |  |
| TorsinA wild type, C-terminally FLAG-tagged, full length (enzyme, human, UniProt O14656 21-332, looked up) VEPISLGLALAGVLTGYIYPRLYCLFAECCGQKRSLSREALQKDLDDNLFGQHLAKKIILNAVFGFINNPKPKKPLTLSLHGWTGTGKNFVSKIIAENIYEGGLNSDYVHLFVATLHFPHASNITLYKDQLQLWIRGNVSACARSIFIFDEMDKMHAGLIDAIKPFLDYYDLVDGVSYQKAMFIFLSNAGAERITDVALDFWRSGKQREDIKLKDIEHALSVSVFNNKNSGFWHSSLIDRNLIDYFVPFLPLEYKHLKMCIRVEMQSRGYEIDEDIVSRVAEEMTFFPKEERVFSDKGCKTVFTKLDYYYDD |  |  | ~6 |
